Measurements from patent US11883410B2, “Preventative and therapeutic agents for sarcopenia” (NATIONAL UNIVERSITY CORPORATION TOKYO UNIVERSITY OF …, priority 2018, dated 2024).
Where two headings read alike, the source gives them in different places.

What was measured:
Format in all cases: in vivo
[1] = tested on: tail-suspended mice (disuse muscle atrophy of lower limbs); assay: Evaluation of inhibition of muscular atrophy in tail-suspended mice, Part 1; settings: feed containing 0.01, 0.1 or 0.3 mass % for 2 weeks during tail-suspension; vs control tail-suspension group
Experimental: Eight-week-old C57/BL6J male mice (Japan SLC, Inc., Shizuoka, Japan) were subjected to tail-suspension to obtain mice model with disuse muscle atrophy of their lower limbs.
The tail-suspension was performed according to the description in Skelet Muscle. 2015; 5:34. […] Tail-suspension is known to cause skeletal muscle mass loss and muscle strength loss in the hind limbs, whereby an experimental model with disuse muscle atrophy, which is one type of sarcopenia, can be produced.
During the period of tail-suspension, feed containing 0.01, 0.1, or 0.3 mass % compound (1) was fed for 2 weeks (compound (1) administration groups). […] The number of tests was n=8 in each group.
(§1) Two weeks after the initiation of the experiment (the initiation of the tail-suspension and the initiation of feeding of the feed that contained the compound), micro-CT (micro-computed tomography) imaging of the mouse hind limbs was performed. The muscle volume at the periphery of the tibia (triceps surae muscle) was measured using 3D volumetric analysis software. Micro-CT imaging was performed using a microfocus X-ray CT system (micro-CT: SMX-90T manufactured by Shimadzu Corporation).
The midpoint of the fibula in the lower limb of each mouse was determined using 3D images created from the micro-CT images, and the volume of total muscle mass at the measurement area starting from the midpoint was measured. […]

[2] = Evaluation of blood kinetics of compound in mice (mixed feed); settings: for Cmax / AUC(0-t): male, mouse, po, C57BL/6 mice, plasma, LC/MS; for AUC(0-t): read-out: AUC0-24 h
Experimental: Mixed feed that contained 0.01, 0.1, or 0.3 mass % compound (1) were fed to 7-week-old C57BL/6 mice (male, Charles River Japan Ltd., weight: 20.7-23.7 g) for 13 days.
Blood was collected from the face by using an animal lancet at 10 a.m., 1, 5, and 9 p.m. on day 12 and 10 a.m. on day 13.
About 75 μL of blood was collected into a heparin-coated hematocrit tube. The concentration of the compound in the plasma after centrifugation was measured using liquid chromatography-mass spectrometry (LC/MS).
Since a mouse with a body weight of about 20 g consumes about 4 g of the feed per day (spilling of food is not assumed), the daily intake of the compound is estimated to be 0.4 mg (0.01 mass % mixed feed), 4 mg (0.1 mass % mixed feed), or 12 mg (0.3 mass % mixed feed). The body weight conversion values were 20 mg/kg (0.01 mass % mixed feed), 200 mg/kg (0.1 mass % mixed feed), and 600 mg/kg (0.3 mass % mixed feed).

[3] = tested on: tail-suspended mice (disuse muscle atrophy of lower limbs); assay: Evaluation of inhibition of muscular atrophy in tail-suspended mice, Part 2; settings: feed containing 0.01 mass % for 2 weeks during tail-suspension; vs control tail-suspension group
Experimental: (§2) Eight-week-old C57/BL6J male mice (Japan SLC, Inc., Shizuoka, Japan) were subjected to the tail-suspension to obtain mice model with disuse muscle atrophy of their lower limbs.
While the tail-suspension was performed, feed containing 0.01 mass % compound (1), compound (2), compound (3), compound (4), or compound (5) was fed for 2 weeks (compound (1) administration group, compound (2) administration group, compound (3) administration group, compound (4) administration group, and compound (5) administration group). […] The number of tests was n=8 in each group.
as §1, with “feeding with” for “feeding of”, “the compounds),” for “the compound),”, “micro-CT” for “micro-CT (micro-computed tomography)”, “(micro-CT: SMX-90T,” for “(micro-CT: SMX-90T”
The midpoint of the fibula in the lower limb of each mouse was determined using 3D images created from the micro-CT images, and the volume of total muscle mass at the measurement area starting from the midpoint was measured. […] The rate of increase was calculated according to the following: (compound administration group−control tail-suspension group)/(normal breeding group−control tail-suspension group)×100.
Furthermore, the gastrocnemius muscle was collected from the mouse hind limb after the tail-suspension, and the wet mass (muscle mass) was measured. […] The rate of increase was calculated according to the following: (compound administration group−control tail-suspension group)/(normal breeding group−control tail-suspension group)×100.
(§3) A Student's t-test was used for the significant difference test.

[4] = tested on: tail-suspended mice (disuse muscle atrophy of lower limbs); assay: Inhibition of muscular atrophy in tail-suspended mice, Part 3 (feeding started one week after tail-suspension); settings: feed containing 0.3 mass % for 2 weeks starting one week after tail-suspension; vs control tail-suspension group
Experimental: as §2
One week after tail-suspension, feed that contained 0.3 mass % compound (1) was fed for 2 weeks (compound (1) administration group). […] The number of tests was n=8 in each group.
Micro-CT imaging of the mouse hind limbs was performed before tail suspension, 1 week after suspension, 2 weeks after suspension, and 3 weeks after suspension. The muscle volume at the periphery of the tibia (triceps surae muscle) was measured using 3D volumetric analysis software. Micro-CT imaging was performed using a microfocus X-ray CT system (micro-CT: SMX-90T, manufactured by Shimadzu Corporation).
The midpoint of the fibula in the lower limb of each mouse was determined using 3D images created from the micro-CT images, and the volume of total muscle mass at the measurement area starting from the midpoint was measured.
Furthermore, the gastrocnemius muscle was collected from the mouse hind limb three weeks after the tail-suspension, and the wet mass (muscle mass) was measured.
as §3

[5] = 20 mg/kg, 0.01% mixed feed for 13 days
[6] = 200 mg/kg, 0.1% mixed feed for 13 days
[7] = 600 mg/kg, 0.3% mixed feed for 13 days

Row | Cmax [2, 5] [nM] | AUC(0-t) [2, 5] [µM·h] | Cmax [2, 6] [nM] | AUC(0-t) [2, 6] [µM·h] | Cmax [2, 7] [nM] | AUC(0-t) [2, 7] [µM·h] | Structure (SMILES) | muscle volume at the periphery of the tibia (triceps surae muscle), micro-CT (FIG. 2) [1] | wet mass (muscle mass) of gastrocnemius, soleus, tibialis anterior and extensor digitorum longus muscles (FIG. 3) [1] | compound concentration in blood ([2]; mixed feed in the range of 0.01 mass % to 0.3 mass %) | muscle volume at the periphery of the tibia (triceps surae muscle), micro-CT (FIG. 6, FIG. 7) [3] | wet mass (muscle mass) of gastrocnemius muscle (FIG. 8, FIG. 9) [3] | muscle volume change at the periphery of the tibia (triceps surae muscle), micro-CT (FIG. 11) [4] | wet mass (muscle mass) of gastrocnemius muscle three weeks after tail-suspension (FIG. 12) [4]
1 | 230 | 4.29 | 2210 | 38.3 | 6410 | 104 | Cn1cccc1C(=O)N1CCN(C(=O)Nc2ccc(N3CCC(C(=O)N4CCOCC4)CC3)cc2)CC1 [compound (1), 4-{(1-methyl-1H-pyrrol-2-yl)carbonyl}-N-[4-{4-(4-morpholinylcarbonyl)-1-piperidinyl}phenyl]-1-piperazine carboxamide] | significant suppression of muscle mass loss | a tendency to suppress a decrease in the muscle amount in all of the hind limb muscles | dose-dependent increase in the compound concentration in blood | significant suppression of muscle mass loss | significant suppression of the decrease in the muscle amount | significantly higher muscle amount at week 2 and week 3 | significant therapeutic effect on the muscle amount
2 | – | – | – | – | – | – | c1ccc(C(OC2CCN(CCCc3nnn[nH]3)CC2)c2ccccc2)cc1 [compound (2), 4-(diphenylmethoxy)-1-[3-(2H-tetrazol-5-yl)propyl]piperidine] | – | – | – | did not show significant suppression of muscle mass loss although a tendency toward suppression was observed | did not show a significant difference although a tendency toward suppression of the decrease in the muscle amount was observed | – | –
3 | – | – | – | – | – | – | O=C(Nc1ccc(N2CCC(CCn3cncn3)C2)cc1)N1CCC(=Cc2ccccn2)CC1 (stereo not shown) [compound (4), N-(4-(3-(2-(1H-1,2,4-triazol-1-yl)ethyl)pyrrolidin-1-yl)phenyl)-4-(pyridin-2-ylmethylene)piperidine-1-carboxamide] | – | – | – | significant suppression of muscle mass loss | significant suppression of the decrease in the muscle amount | – | –
4 | – | – | – | – | – | – | Cn1cccc1C(=O)N1CCN(C(=O)NC2CCN(c3ccc(CCn4ccnn4)cc3)CC2)CC1 [compound (5), 4-((1-methylpyrrol-2-yl)-carbonyl)-N-(1-(4-(2-(1H-1,2,3-triazol-1-yl)-ethyl)-phenyl)-piperidin-4-yl)-1-piperazine carboxamide] | – | – | – | significant suppression of muscle mass loss | significant suppression of the decrease in the muscle amount | – | –
